{
  "source": "patent US20250000874A1",
  "about": "“BACTERIAL METABOLITES AND THEIR USE IN REDUCING INFLAMMATION” (LOYOLA UNIVERSITY OF CHICAGO, priority 2023, published 2025)",
  "key": {"[1]": {"test_system": "NF-kB", "test": "MQ on translocation of NF-kB (p65) to the nucleus in HCECs, western blot", "type": "cell-based, human", "settings": "MQ 50 μM overnight, FLA 100 ng/ml 3 hours", "experimental": "Materials and Methods: Human corneal epithelial cells were grown in culture. Cells were then plated in DMEM. The cells cultures were then kept at 37° C. with 5% CO2. Once ready, HCECs were then incubated with MQ at a concentration of 50 uM overnight. […] Samples were treated for 3 hours and then samples were collected. Nuclear and cytoplasmic fractions were obtained using 0.1% NP-40 buffer. Cells were pelleted and the supernatant was discarded. Cells were then treated with 25 μl of NP-40 lysis buffer. Upon addition of the buffer cells were centrifuged for 10 minutes at 3000 rpm at 4° C. The supernatant was collected which is the cytoplasmic fraction and the remaining pellet was the nuclear fraction. The pellet was then washed three times to remove any remaining cytoplasmic fraction.\nBoth fractions were then treated with 2x SDS loading buffer and the protein was denatured at 100° C. and placed on ice. Proteins were run on a gel at […] until the dye front neared the bottom of the gel. Protein was then dry transferred to a membrane. The membrane was blocked in 5% blocking buffer overnight. The following day the membrane was washed three times with PBS-T and anti-mouse p65-NF-kB rabbit polyclonal antibody was added. […]\nThe inhibitory effects on the translocation of NF-kB from the cytoplasm to the nucleus following stimulation with FLA was also assessed. […]"}, "[2]": {"test_system": "Human corneal epithelial cells", "test": "NC on IL-6 release in HCECs", "type": "cell-based", "settings": "50 μM NC 18 hours, 6-8 hours", "experimental": "FIG. 30. NC on IL-6 Release in HCECs. Human corneal epithelial cells were plated at a uniform density of 0.2×10^6 cells/mL in 24 well plates. These cells were allowed to adhere for 6-8 hours. They were then treated 18 hours with 50tM of metabolite NC before being stimulated with 1 tg/mL of PA-Flagellin or 50 tg/mL Poly I:C. Supernatant was collected between 6-8 hours after addition of TLR agonist and centrifuged at 1250 rpms for 5 minutes to remove any debris. IL-6 in the supernatant was then quantified using a sandwich ELISA for human IL-6 with a standard of known IL-6 concentration.\nHuman corneal epithelial cells (HCECs) are a cell type used for models of ocular inflammation. To determine the specificity of HCEC TLR signaling, HCECs were stimulated with various TLR agonists. In this experimental model, HCECs only release IL-6 in response to TLR3 and TLR5 agonists (Poly I:C and Fla, respectively) in vitro (FIG. 29). Therefore, only Poly I:C and Fla were used for HCEC stimulation in subsequent experiments.\nTo determine if NC can mitigate TLR-related inflammation, HCECs were plated at a uniform density, incubated with 50 μM metabolite NC for 18 hours, and stimulated with flagellin or Poly I:C. After 6-8 hours, supernatant was collected and IL-6 was quantified. […] FIG. 30."}, "[3]": {"test": "In vivo toxicity of JE given I.P.: serum ALT and organ histology", "settings": "JE 50 μM twice daily I.P. for 3 or 5 days", "experimental": "To test if JE has any toxicity, we first incubated murine macrophages with JE at different concentrations at 37° C. for two days, and determined viability of the cells. […] Further we injected the JE at 50 μM twice daily via I.P. for 3 or 5 days and then determined ALT levels in sera and examined the morphology in key organs, liver, kidney, spleen, intestines etc."}, "[4]": {"test_system": "mouse peritonitis", "test": "LPS-induced mouse peritonitis model, peritoneal neutrophils by flow cytometry (Ly6G)", "type": "in vivo", "settings": "JE i.p. two consecutive days, LPS i.p. day 3, 4 hours, vs PBS", "experimental": "FIG. 4A-4B. Bacterial Supernatant <10 kD fraction inhibits mouse peritonitis in vivo. 6-week old B6 mice were i.p. injected with <10 kD fraction from LF, TS medium, or PBS (500 μL/dose) at day 0 and day 1. At day 2, mice were given LPS (10 μg/mouse) or PBS via i.p. […] (FIG. 4A) The recruited neutrophils were quantified by flow cytometry using the neutrophil markers Ly6G and data were analyzed by FlowJo Software. (FIG. 4B) Neutrophil numbers are shown as mean±s.d., **p<0.01, n=3 per group.\nFIG. 9A-9C. FACS representation of mouse peritonitis model. Histograms were made from FACS gating of cells collected from the peritoneal cavity. (FIG. 9A) Mice were pre-treated for two consecutive days with compound JE and then received LPS. (FIG. 9B) Mice received only LPS. (FIG. 9C) Another group received PBS injected for two consecutive days to serve as a negative control. […]\nCommensal bacteria are non-invading bacteria that habit the host gastrointestinal tract without causing harm. […] We then measured the ability of the <10 kDa fraction to cross intestinal epithelium with the tight junctions without disrupting the integrity. […] To determine if the <10 kD fraction suppresses LPS-induced inflammatory responses in vivo, we intraperitoneally injected the <10 kDa fraction into C57/Bl6 mice followed by LPS and then analyzed peritoneal numbers of neutrophils by flow cytometry. […]"}},
  "note": "“Also recorded” adds a separate entry of the source.",
  "data": [
    {"compound": "Prednicarbate [MQ]", "values": [
      {"measurement": "translocation of NF-kB to the nucleus", "setting": "[1]", "result": "inhibited"}
    ]},
    {"compound": "CCCCCCCCCCCCCCCC(=O)N[C@@H](C(=O)O)[C@H](C)O", "note": "[NC, N-Palmitoyl-D-Threonine]", "values": [
      {"measurement": "release of IL-6 in response to Poly I:C", "setting": "[2]; Poly I:C", "result": "does not significantly reduce; also recorded: modestly reduced"},
      {"measurement": "release of IL-6 in response to Fla", "setting": "[2]; flagellin", "result": "does not significantly reduce"}
    ]},
    {"compound": "CC(=O)O[C@@H]1CC[C@H]2[C@H]3CC[C@H]4CC(F)(F)CC[C@]4(C)[C@H]3CC[C@]12C", "note": "[JE, 3,3-Difluoro-5-alpha-androstan-17-beta-yl acetate]", "values": [
      {"measurement": "tissue damage in organs by histology (liver, kidney, spleen, intestines)", "setting": "[3]", "result": "did not see any tissue damage"},
      {"measurement": "ALT levels in sera", "setting": "[3]; vs control group", "result": "no significant higher levels"},
      {"measurement": "peritoneal neutrophil recruitment", "setting": "[4]", "result": "reduced"}
    ]}
  ]
}
